Data as given in BindingDB's records for patent US20260022118 (University of Texas System, 2026).

Molecular target: GTPase NRas [G12D,C118S] (Homo sapiens, UniProt P01111, C118S/G12D)
Assay: NRas G12D Surface Plasmon Resonance (SPR) Binding Assay
Experimental: The assay was run at 25° C. with a data collection rate of 10 Hz. All samples were flowed over both a reference surface and an active surface. Samples were injected for 30 s, with a dissociation time length of 120 s, at a flow rate of 100 μL/min and followed by an extra wash with 50% DMSO and a carry-over control injected at 40 μL/min for 30 s. Ten startup cycles were performed at the beginning of the assay. Solvent correction samples were injected once in the middle of the assay, and once at the end. A control sample of 10 μM control compound was injected between two negative control injections (1.0× running buffer containing 3% DMSO) every thirty cycles, to periodically assess NRAS surface stability. Assay was allowed to run for approximately 20-24 hours due to loss of activity of the protein surface over time. Data was analyzed using the Biacore™ S200 Evaluation Software, and all data was fit using a 1:1 kinetic binding model or steady-state fitting, as appropriate.

Chain of GTPase NRas [G12D,C118S] (P01111 whole entry G12D/C118S, looked up): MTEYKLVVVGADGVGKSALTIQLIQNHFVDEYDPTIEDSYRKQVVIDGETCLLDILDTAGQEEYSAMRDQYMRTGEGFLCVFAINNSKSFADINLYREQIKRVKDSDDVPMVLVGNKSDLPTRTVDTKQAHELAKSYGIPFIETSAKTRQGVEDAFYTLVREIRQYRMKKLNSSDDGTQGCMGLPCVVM

`C#Cc1c(F)ccc2cc(O)cc(-c3nc(C(C)=O)c4c([C@H]5[C@@H]6CNC[C@@H]65)nn(C5CC5)c4c3F)c12` [US20260022118, Example 84] was tested, and the Kd was 119 nM.
